Earlier results on 5 molecules are cited in US20070149409A1, “Pesticide formulations with substituted biopolymers and organic polymers for improving residual activity, droplet size, adherence and rainfastness on leaves and reduction in soil leaching” (priority 2003, published 2007).

Consider Indole acetic acid, for which the “pK / pKa” value is given as 4.7. Consider `CCCC(Cn1cncn1)c1ccc(Cl)cc1Cl` (centres unmarked) [penconazole], for which the “pK / pKa” value is 1.5. Turning to `CP(=O)(O)CCC(N)C(=O)O` (centres unmarked) [glufosinate], the “pK / pKa” value is on record as 9.8.

For `CCCOC(=O)NCCCN(C)C` [propamocarb], the “pK / pKa” value is listed as 4.9. With `Nc1nc[nH]n1` [Amitrole], the “pK / pKa” value is reported as 9.8.
